Experimental data: patent US8772348B2, “Materials and methods for pest control” (priority 2009, dated 2014)
Read-outs that look alike come from different tables or passages of the source.

What was measured:
Aedes aegypti [1] = settings: formulation on plywood panels at 1.67 mg cm^−2, 2 h exposure, mortality 24 h after initial exposure
Procedure: Briefly, after mosquitoes are assayed on unpainted plywood panel boards with formulation at a concentration of 1.67 mg cm^−2 for 2 hours, they are transferred into a separate glass jar, and held for another 24 hours. The mortality rate is measured daily for a continuous 4 days (Day 1 starts at 24 hours after the transfer), as is determined using the same procedures as are illustrated in Example 2.
Plywood panels (225 cm^2) were treated with chemicals at a rate of 1.67 mg cm^−2. Panels were treated on day 0 and was held until exposure on post-treatment day. Mosquitoes were exposed to chemicals for 2 h, and mortality rate was assessed 24 h after initial exposure. Control contained formulation ingredients without semiochemicals.

Aedes aegypti [2] = settings: formulation on military fabric at LC99-based concentration, 2 h exposure, mortality 24 h after initial exposure
Procedure: Briefly, after mosquitoes are exposed to formulations for 2 hours at a concentration of LC99, each set is transferred into a separate glass jar, and held for another 24 hours. The mortality rate is measured with new mosquitoes on post-treatment days 2, 3, 5, 8 and 14 (Day 1 starts at 24 hours after the transfer), and is determined using the same procedures as are illustrated in Example 2.
Concentrations were generated from technical-based LC99 values obtained from a 2 h exposure period on military fabric. Fabric was treated on day 0 and was held until exposure on post-treatment day. Mosquitoes were exposed for 2 h, and mortality rate was assessed 24 h after initial exposure. Control contained formulation ingredients without semiochemicals.

Aedes aegypti [3] = settings: EC formulation on military fabric
Procedure: (§1) A commercially-available permethrin 57 g L^−1 EC (Ectiban EC 57; Universal Cooperatives, Minneapolis, Minn.) was included for comparison. Except rosalva, the 50% EC semiochemical formulations were generated by combining 500 mL AI, 430 mL canola oil (Publix, Lakeland, Fla.), 10 mL xylene, 50 mL Triton X-100 (Acros Organics Nev., Fair Lawn, N.J.) and 10 mL Agsolex-8 (International Specialty Products, Wayne, N.J.). The rosalva formulation contained all of the above-mentioned ingredients, with canola oil concentration reduced to 400 mL L^−1, Triton X-100 concentration increased to 75 mL L^−1, and 5 mL L^−1 Antifoam B silicone emulsion (Mallinckrodt Baker, Phillipsburg, N.Y.) included.
Briefly, a piece of 10×10 cm^2 fabric (TenCate Defender™) is impregnated with 2 ml of serially diluted 20-emulsifiable concentrate or 50-emulsifiable concentrate formulations, respectively, and subsequently dried for about an hour. Also, six-to-ten-day-old, never blood-fed, adult female Ae. aegypti mosquitoes are obtained. The mosquitoes are divided into seven sets: three sets as the experiment, three sets as the positive control, and one set as the negative control. Each set consists of 20 mosquitoes. […] The positive control set is exposed to fabric pieces treated with geranyl acetone, rosalva or citronellol. The negative control set is exposed to fabric pieces treated with acetone solution. Throughout the exposure periods, each set is provided with 10% sucrose solution and sufficient air circulation. Ataxic mosquitoes are considered dead. The mortality rate and the LC values are determined using the same procedures as are illustrated in Example 2.

[4] = tested on: Susceptible Musca domestica; assay: Contact bioassay of emulsified concentrate formulations on filter paper discs; settings: EC formulation on filter paper
Procedure: as §1
Briefly, Whatman No. 1 filter paper discs (63.58 cm^2) are impregnated with 1.5 ml serially diluted formulations in 20 emulsified concentrates and 50 emulsified concentrates, respectively, and subsequently dried for about an hour. Then, house flies are divided into seven sets: three sets as the experiment, three sets as the positive control, and one set as the negative control. Each set consists of twenty six-to-ten-day old adult flies. […] The positive control set is exposed to paper discs impregnated with geranyl acetone, rosalva or citronellol. The negative control set is exposed to paper discs impregnated with acetone solution. Throughout the exposure periods, each set is provided with 10% sucrose solution and sufficient air circulation. Ataxic flies are considered dead. The mortality rate and the LC values are determined using the same procedures as is illustrated in Example 2.

Structure (SMILES)	% mortality on various days following treatment (Aedes aegypti [1]; day 1)	% mortality on various days following treatment (Aedes aegypti [1]; day 2)	% mortality on various days following treatment (Aedes aegypti [1]; day 3)	% mortality on various days following treatment (Aedes aegypti [1]; day 4)	% mortality on various days following treatment (Aedes aegypti [2]; day 1)	% mortality on various days following treatment (Aedes aegypti [2]; day 2)	% mortality on various days following treatment (Aedes aegypti [2]; day 5)	% mortality on various days following treatment (Aedes aegypti [2]; day 14)	LC90 (Aedes aegypti [3]; exposure period 2 hours)	LC90 (Aedes aegypti [3]; exposure period 4 hours)	LC90 (Aedes aegypti [3]; exposure period 24 hours)	LC90 ([4]; 24 h constant exposure)	LC90 ([4]; 48 h constant exposure)	% mortality on various days following treatment (Aedes aegypti [2]; day 3)	% mortality on various days following treatment (Aedes aegypti [2]; day 8)
CC(C)=CCCC(C)CCO (stereo not shown) [Citronellol, citronellol]	94.00a %	61.0b %	26.0b %	10.0b %	95.00a %	77.50a %	35.00b %	2.50cd %	1938.19 μg cm^−2	1434.18 μg cm^−2	700.43 μg cm^−2	580.00 μg cm^−2	886.04 μg cm^−2	–	–
CC(=O)CC/C=C(\C)CCC=C(C)C [Geranyl acetone, geranyl acetone]	84.00a %	25.0c %	8.0c %	5.0c %	91.25a %	83.00a %	32.50b %	5.00c %	934.62 μg cm^−2	742.61 μg cm^−2	338.61 μg cm^−2	1227.00 μg cm^−2	716.72 μg cm^−2	30.00c %	17.50c %
C=CCCCCCCCCO [Rosalva, rosalva]	58.00b %	34.0c %	11.0%	3.25.c %	95.00a %	87.50a %	35.00b %	0.00d %	1276.16 μg cm^−2	1262.11 μg cm^−2	500.92 μg cm^−2	1054.32 μg cm^−2	1022.88 μg cm^−2	65.00b %	27.50a %
